# According to patent US20230143604A1, “QW DOSING OF GIP RECEPTOR AGONIST PEPTIDE COMPOUNDS AND USES THEREOF” (TAKEDA PHARMACEUTICAL COMPANY LIMITED, priority 2020, published 2023):
# Starred links: 1 amine or outer side, 2 acyl side, 3 side chain; linkers in the order of their positions; H or OH if unused. Non-standard residues stand in square brackets, D forms with d. Residues, ends and D or L forms follow the SMILES beside them. Groups on a side chain read outwards from the residue. *: point of attachment. C17 diacid = O=C(O)CCCCCCCCCCCCCCCC(=O)*; γGlu = O=C(O)[C@H](CCC(=O)[*:2])N[*:1]; NMeY = CN[C@@H](Cc1ccc(O)cc1)C(=O)O; AEEA = NCCOCCOCC(=O)O; Aib = CC(C)(N)C(=O)O
# Test: physchem
# Details: pH 7.4, aqueous buffer
# Summary of the method: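 3 mg of peptide treated with 100 μL portions of 200 mM phosphate buffer pH 7.4, sonicating/vortexing up to 1 min, with further buffer added until fully dissolved. Solubility then quantified by HPLC.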
# [1] = pH 7.4 Phosphate Buffer - Solubility, 200 mM Phosphate buffer pH 7.4
structure (smiles),measurement,setting,value
CC[C@H](C)[C@H](NC(=O)[C@H](CO)NC(=O)[C@H](Cc1ccc(O)cc1)NC(=O)[C@H](CC(=O)O)NC(=O)[C@H](CO)NC(=O)[C@@H](NC(=O)[C@H](Cc1ccccc1)NC(=O)[C@@H](NC(=O)CNC(=O)[C@H](CCC(=O)O)NC(=O)C(C)(C)NC(=O)[C@H](Cc1ccc(O)cc1)NC)[C@@H](C)O)[C@@H](C)CC)C(=O)N[C@@H](C)C(=O)N[C@@H](CC(C)C)C(=O)N[C@@H](CC(=O)O)C(=O)N[C@@H](CCCNC(=N)N)C(=O)NC(C)(C)C(=O)N[C@@H](Cc1c[nH]cn1)C(=O)N[C@@H](CCC(N)=O)C(=O)NC(C)(C)C(=O)N[C@@H](CCCCNC(=O)COCCOCCNC(=O)COCCOCCNC(=O)CC[C@H](NC(=O)CC[C@H](NC(=O)CCCCCCCCCCCCCCCC(=O)O)C(=O)O)C(=O)O)C(=O)N[C@@H](Cc1ccccc1)C(=O)N[C@H](C(=O)N[C@@H](CC(N)=O)C(=O)N[C@@H](Cc1c[nH]c2ccccc12)C(=O)N[C@@H](CC(C)C)C(=O)N[C@@H](CC(C)C)C(=O)N[C@@H](C)C(=O)N[C@@H](CCC(N)=O)C(=O)N[C@@H](CCCNC(=N)N)C(N)=O)C(C)C [Compound 257] (H-[NMeY][Aib]EGTFISDYSIALDR[Aib]HQ[Aib]K([AEEA-AEEA-γGlu-γGlu-C17 diacid])FVNWLLAQR-NH2),solubility,,≥ 7500 µg/mL
CC[C@H](C)[C@H](NC(=O)[C@H](CO)NC(=O)[C@H](Cc1ccc(O)cc1)NC(=O)[C@H](CC(=O)O)NC(=O)[C@H](CO)NC(=O)[C@@H](NC(=O)[C@H](Cc1ccccc1)NC(=O)[C@@H](NC(=O)CNC(=O)[C@H](CCC(=O)O)NC(=O)C(C)(C)NC(=O)[C@H](Cc1ccc(O)cc1)NC)[C@@H](C)O)[C@@H](C)CC)C(=O)N[C@@H](C)C(=O)N[C@@H](CC(C)C)C(=O)N[C@@H](CC(=O)O)C(=O)N[C@@H](CCCNC(=N)N)C(=O)NC(C)(C)C(=O)N[C@@H](Cc1c[nH]cn1)C(=O)N[C@@H](CCC(N)=O)C(=O)NC(C)(C)C(=O)N[C@@H](CC(N)=O)C(=O)N[C@@H](Cc1ccccc1)C(=O)N[C@H](C(=O)N[C@@H](CC(N)=O)C(=O)N[C@@H](Cc1c[nH]c2ccccc12)C(=O)N[C@@H](CC(C)C)C(=O)N[C@@H](CC(C)C)C(=O)N[C@@H](C)C(=O)N[C@@H](CCCCNC(=O)COCCOCCNC(=O)COCCOCCNC(=O)CC[C@H](NC(=O)CC[C@H](NC(=O)CCCCCCCCCCCCCCCC(=O)O)C(=O)O)C(=O)O)C(=O)N[C@@H](CCCNC(=N)N)C(N)=O)C(C)C [Compound 258] (H-[NMeY][Aib]EGTFISDYSIALDR[Aib]HQ[Aib]NFVNWLLAK([AEEA-AEEA-γGlu-γGlu-C17 diacid])R-NH2),solubility,,≥ 6000 µg/mL
CC[C@H](C)[C@H](NC(=O)[C@H](CO)NC(=O)[C@H](Cc1ccc(O)cc1)NC(=O)[C@H](CC(=O)O)NC(=O)[C@H](CO)NC(=O)[C@@H](NC(=O)[C@H](Cc1ccccc1)NC(=O)[C@@H](NC(=O)CNC(=O)[C@H](CCC(=O)O)NC(=O)C(C)(C)NC(=O)[C@H](Cc1ccc(O)cc1)NC)[C@@H](C)O)[C@@H](C)CC)C(=O)N[C@@H](C)C(=O)N[C@@H](CC(C)C)C(=O)N[C@@H](CC(=O)O)C(=O)N[C@@H](CCCNC(=N)N)C(=O)N[C@@H](CCCCNC(=O)CNC(=O)CNC(=O)CNC(=O)CNC(=O)CNC(=O)CCCCCCCCCCCCCCCC(=O)O)C(=O)N[C@@H](Cc1c[nH]cn1)C(=O)N[C@@H](CCC(N)=O)C(=O)NC(C)(C)C(=O)N[C@@H](CC(N)=O)C(=O)N[C@@H](Cc1ccccc1)C(=O)N[C@H](C(=O)N[C@@H](CC(N)=O)C(=O)N[C@@H](Cc1c[nH]c2ccccc12)C(=O)N[C@@H](CC(C)C)C(=O)N[C@@H](CC(C)C)C(=O)N[C@@H](C)C(=O)N[C@@H](CCC(N)=O)C(=O)N[C@@H](CCCNC(=N)N)C(=O)N1CCC[C@H]1C(=O)N[C@@H](CO)C(=O)N[C@@H](CO)C(=O)NCC(=O)N[C@@H](C)C(=O)N1CCC[C@H]1C(=O)N1CCC[C@H]1C(=O)N1CCC[C@H]1C(=O)N[C@@H](CO)C(=O)O)C(C)C [Compound 259],solubility,[1],< 6000 µg/mL
CC[C@H](C)[C@H](NC(=O)[C@H](CO)NC(=O)[C@H](Cc1ccc(O)cc1)NC(=O)[C@H](CC(=O)O)NC(=O)[C@H](CO)NC(=O)[C@@H](NC(=O)[C@H](Cc1ccccc1)NC(=O)[C@@H](NC(=O)CNC(=O)[C@H](CCC(=O)O)NC(=O)C(C)(C)NC(=O)[C@H](Cc1ccc(O)cc1)NC)[C@@H](C)O)[C@@H](C)CC)C(=O)N[C@@H](C)C(=O)N[C@@H](CCCCNC(=O)CNC(=O)CNC(=O)CNC(=O)CNC(=O)CNC(=O)CC[C@H](NC(=O)CCCCCCCCCCCCCCCC(=O)O)C(=O)O)C(=O)N[C@@H](CC(=O)O)C(=O)N[C@@H](CCCNC(=N)N)C(=O)NC(C)(C)C(=O)N[C@@H](C)C(=O)N[C@@H](CCC(N)=O)C(=O)NC(C)(C)C(=O)N[C@@H](CC(N)=O)C(=O)N[C@@H](Cc1ccccc1)C(=O)N[C@H](C(=O)N[C@@H](CC(N)=O)C(=O)N[C@@H](Cc1c[nH]c2ccccc12)C(=O)N[C@@H](CC(C)C)C(=O)N[C@@H](CC(C)C)C(=O)N[C@@H](C)C(=O)N[C@@H](CCC(N)=O)C(=O)N[C@@H](CCCNC(=N)N)C(=O)N1CCC[C@H]1C(=O)N[C@@H](CO)C(=O)N[C@@H](CO)C(=O)NCC(=O)N[C@@H](C)C(=O)N1CCC[C@H]1C(=O)N1CCC[C@H]1C(=O)N1CCC[C@H]1C(=O)N[C@@H](CO)C(N)=O)C(C)C [Compound 260],solubility,[1],< 6000 µg/mL
CC[C@H](C)[C@H](NC(=O)[C@H](Cc1ccccc1)NC(=O)[C@@H](NC(=O)CNC(=O)[C@H](CCC(=O)O)NC(=O)C(C)(C)NC(=O)[C@H](Cc1ccc(O)cc1)NC)[C@@H](C)O)C(=O)N[C@@H](CO)C(=O)N[C@@H](CC(=O)O)C(=O)N[C@@H](Cc1ccc(O)cc1)C(=O)N[C@@H](CO)C(=O)N[C@H](C(=O)NC(C)(C)C(=O)N[C@@H](CCCCNC(=O)CNC(=O)CNC(=O)CNC(=O)CNC(=O)CNC(=O)CC[C@H](NC(=O)CCCCCCCCCCCCCCCC(=O)O)C(=O)O)C(=O)N[C@@H](CC(=O)O)C(=O)N[C@@H](CCCNC(=N)N)C(=O)NC(C)(C)C(=O)N[C@@H](C)C(=O)N[C@@H](CCC(N)=O)C(=O)NC(C)(C)C(=O)N[C@@H](CC(N)=O)C(=O)N[C@@H](Cc1ccccc1)C(=O)N[C@H](C(=O)N[C@@H](CC(N)=O)C(=O)N[C@@H](Cc1c[nH]c2ccccc12)C(=O)N[C@@H](CC(C)C)C(=O)N[C@@H](CC(C)C)C(=O)N[C@@H](C)C(=O)N[C@@H](CCC(N)=O)C(=O)N[C@@H](CCCNC(=N)N)C(=O)N1CCC[C@H]1C(=O)N[C@@H](CO)C(=O)N[C@@H](CO)C(=O)NCC(=O)N[C@@H](C)C(=O)N1CCC[C@H]1C(=O)N1CCC[C@H]1C(=O)N1CCC[C@H]1C(=O)N[C@@H](CO)C(N)=O)C(C)C)[C@@H](C)CC [Compound 261],solubility,[1],< 6000 µg/mL
